Where a name gives a salt, the structure may show the parent alone.
Molecular target: T1, Human Histamine H3 Receptor (Homo sapiens, UniProt Q9Y5N1)
T1 construct: expressed in transfected cells; host or cells: HEK293T cells, stably transfected; membrane preparation
Assay: Methyl histamine binding in human histamine H3 receptor cell line
Conditions: membranes of stably transfected HEK293T cells; radioligand 1 nM; Ki from IC50 by Cheng-Prusoff
Experimental: Evaluation of Methyl Histamine Binding in Human Histamine H3 Receptor Cell Line
The affinity of test compounds for the histamine 3 (H3) receptor is evaluated in the following manner. Stably transfected HEK293T cells are grown in DMEM containing 10% heat inactivated FBS and G-418 (500 ug/ml). Cells are scraped from the plate, transferred to centrifuge tubes, washed one time in PBS by centrifugation in a Sorvall RT7 Plus centrifuge (2000 rpm 10 minutes, 4° C.). The resulting pellets are stored at −80° C. until ready for use. Cells are re-suspended in buffer (50 mM Tris pH=7.5) and placed in a Dounce homogenizer, douncing ten times to homogenize cells. The homogenate is spun down by centrifugation (Sorvall RT7 Plus, 1800 rpm 10 minutes, 4° C.). The supernatant is placed in a Corex tube and spun down by centrifugation (Sorvall RC 5c Plus, 17,000 rpm 20 minutes, 4° C.). The pellet is resuspended in buffer (50 mM Tris, pH 7.5). Protein concentration (ug/ul) is determined using the Micro-BCA Protein Determination. The binding assay is set up in a 96 well microtiter plate in a total volume of 250 uL. Non-specific binding is determined in the presence of 10 uM clobenpropit. The final radioligand concentration is 1 nM. The test compound is serially diluted using the Beckman Biomek2000 to a final approximate range of 100 uM to 100 pM. Membranes are suspended in buffer, homogenized in 2 bursts of ten seconds using a Vitris mechanical homogenizer set at power setting 5. Ten μg of membranes are added to each well. Following a one hour incubation at 30° C., the reaction is terminated by the addition of ice cold buffer and rapid filtration with a Packard Filtermate Harvester through a GF/B filter pre-soaked with 1% PEI for one hour. The plate is dried for one hour at 37° C. and 60 μL Microscint Scintillant is added to each well. The CPM per well is measured on a Packard Top Count NXT. Ki values are determined in nM. The Ki is calculated from the IC50 (i.e. the concentration of competing ligand which displaces 50% of the specific binding of the radioligand). CPM values are expressed as % specific binding and plotted vs compound concentration. A curve is fitted using a four-parameter logistic fit and the IC50 value is determined. The Ki is calculated from this using the Cheng-Prusoff equation: […]=IC50/1+(L/Kd) where L=concentration of free radioligand used in the assay, and Kd is the dissociation constant of the radioligand for the receptor. L is determined for each experiment by counting an aliquot of the diluted radioligand (corresponding to that added to each well) and the Kd has previously been determined under identical conditions for this cell line/radioligand.

T1 sequence (Q9Y5N1 whole entry): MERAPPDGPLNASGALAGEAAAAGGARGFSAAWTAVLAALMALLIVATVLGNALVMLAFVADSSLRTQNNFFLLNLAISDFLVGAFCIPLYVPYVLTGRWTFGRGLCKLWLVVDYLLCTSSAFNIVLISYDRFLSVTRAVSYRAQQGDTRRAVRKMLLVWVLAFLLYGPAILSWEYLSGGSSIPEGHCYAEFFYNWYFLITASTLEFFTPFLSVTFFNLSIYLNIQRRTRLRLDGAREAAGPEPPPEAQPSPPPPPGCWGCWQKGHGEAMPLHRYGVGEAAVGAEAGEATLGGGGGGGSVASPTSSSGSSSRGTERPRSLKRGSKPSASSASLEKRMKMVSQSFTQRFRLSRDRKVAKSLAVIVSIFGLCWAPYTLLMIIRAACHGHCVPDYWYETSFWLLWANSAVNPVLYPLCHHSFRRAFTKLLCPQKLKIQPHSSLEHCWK

Row | SMILES | Ki [nM]
1 | CN1CC[C@@H](N2CCc3cc(-c4ccc(C(=O)N5CCCC5)cc4)ccc3C2=O)C1 [Example 55, 2-[(3R)-1-methylpyrrolidin-3-yl]-6-[4-(pyrrolidin-1-ylcarbonyl)phenyl]-3,4-dihydroisoquinolin-1(2H)-one] | 50.1 to 100
2 | CCN(CC)C(=O)c1ccc(Oc2ccc3c(c2)CCN(C2CCN(C4CCC4)CC2)C3=O)cc1 [Example 11, 4-{[2-(1-Cyclobutylpiperidin-4-yl)-1-oxo-1,2,3,4-tetrahydroisoquinolin-6-yl]oxy}-N,N-diethylbenzamide] | 25.1 to 50
3 | O=C(c1ccc(-c2ccc3c(c2)CCN([C@@H]2CCN(C4CCC4)C2)C3=O)cc1F)N1CCCC1 [Example 48, 2-[(3R)-1-cyclobutylpyrrolidin-3-yl]-6-[3-fluoro-4-(pyrrolidin-1-ylcarbonyl)phenyl]-3,4-dihydroisoquinolin-1(2H)-one] | ≤ 10
4 | CNC(=O)c1ccc(-c2ccc3c(c2)CCN([C@@H]2CCN(C(C)C)C2)C3=O)cc1 [Example 82] | ≤ 10
5 | N#Cc1ccc(-c2ccc3c(c2)CN(C2CCNCC2)C3=O)cc1 [Example 22, 4-(1-oxo-2-piperidin-4-yl-2,3-dihydro-1H-isoindol-5-yl)benzonitrile hydrochloride] | > 100
6 | CNC(=O)c1ccc(-c2ccc3c(c2)CN([C@@H]2CCN(C4CCC4)C2)C3=O)cc1 [Example 91, (R)-4-(2-(1-cyclobutylpyrrolidin-3-yl)-1-oxoisoindolin-5-yl)-N-methylbenzamide hydrochloride] | 10.1 to 25
7 | O=C(c1ccc(-c2ccc3c(c2)CCN([C@@H]2CCN(Cc4ccco4)C2)C3=O)cc1)N1CCCC1 [Example 61, 2-[(3R)-1-(furan-2-ylmethyl)pyrrolidin-3-yl]-6-[4-(pyrrolidin-1-ylcarbonyl)phenyl]-3,4-dihydroisoquinolin-1(2H)-one] | > 100
8 | O=C(c1ccc(-c2ccc3c(c2)CCN([C@@H]2CCCN(C4CCC4)C2)C3=O)cc1)N1CCCC1 [Example 70, 2-[(3R)-1-cyclobutylpiperidin-3-yl]-6-[4-(pyrrolidin-1-ylcarbonyl)phenyl]-3,4-dihydroisoquinolin-1(2H)-one] | 10.1 to 25
9 | O=C(NC1CCC1)c1ccc(Oc2ccc3c(c2)CCN(C2CCN(C4CCC4)CC2)C3=O)cc1 [Example 8, N-Cyclobutyl-4-{[2-(1-cyclobutylpiperidin-4-yl)-1-oxo-1,2,3,4-tetrahydroisoquinolin-6-yl]oxy}benzamide] | ≤ 10
10 | N#Cc1ccc(-c2ccc3c(c2)CN(C2CCN(C4CCCC4)CC2)C3=O)cc1 [Example 29, 4-[2-(1-Cyclopentylpiperidin-4-yl)-1-oxo-2,3-dihydro-1H-isoindol-5-yl]benzonitrile] | 10.1 to 25
11 | CNC(=O)c1ccc(Oc2ccc3c(c2)CCN(C2CCN(C4CCC4)CC2)C3=O)cc1 [Example 4, 4-{[2-(1-Cyclobutylpiperidin-4-yl)-1-oxo-1,2,3,4-tetrahydroisoquinolin-6-yl]oxy}-N-methylbenzamide] | ≤ 10
12 | N#Cc1ccc(-c2ccc3c(c2)CN(C2CCN(C4CCC4)CC2)C3=O)cc1 [Example 28, 4-[2-(1-Cyclobutylpiperidin-4-yl)-1-oxo-2,3-dihydro-1H-isoindol-5-yl]benzonitrile] | 25.1 to 50
13 | CNC(=O)c1ccc(-c2ccc3c(c2)CCN([C@@H]2CCN(C4CCCC4)C2)C3=O)cc1 [Example 41, 4-{2-[(3R)-1-cyclopentylpyrrolidin-3-yl]-1-oxo-1,2,3,4-tetrahydroisoquinolin-6-yl}-N-methylbenzamide] | ≤ 10
14 | CN(C)C(=O)c1ccc(-c2ccc3c(c2)CCN([C@@H]2CCN(C4CCC4)C2)C3=O)cc1 [Example 46, 4-{2-[(3R)-1-cyclobutylpyrrolidin-3-yl]-1-oxo-1,2,3,4-tetrahydroisoquinolin-6-yl}-N,N-dimethylbenzamide] | ≤ 10
15 | N#Cc1ccc(-c2ccc3c(c2)CN(C2CCN(C4CCCCC4)CC2)C3=O)cc1 [Example 30, 4-[2-(1-Cyclohexylpiperidin-4-yl)-1-oxo-2,3-dihydro-1H-isoindol-5-yl]benzonitrile] | 25.1 to 50
16 | CCNC(=O)c1ccc(-c2ccc3c(c2)CCN([C@@H]2CCN(C(C)C)C2)C3=O)c(F)c1 [Example 86, N-ethyl-3-fluoro-4-{2-[(3R)-1-isopropylpyrrolidin-3-yl]-1-oxo-1,2,3,4-tetrahydroisoquinolin-6-yl}benzamide] | ≤ 10
17 | O=C(c1ccc(-c2ccc3c(c2)CCN([C@@H]2CCN(C4CCCC4)C2)C3=O)cc1)N1CCCC1 [Example 43, 2-[(3R)-1-cyclopentylpyrrolidin-3-yl]-6-[4-(pyrrolidin-1-ylcarbonyl)phenyl]-3,4-dihydroisoquinolin-1(2H)-one] | ≤ 10

More lines, now with the values ahead:

Row | Ki [nM] | SMILES
18 | ≤ 10 | CNC(=O)c1ccc(Oc2ccc3c(c2)CCN([C@@H]2CCN(C4CCCC4)C2)C3=O)cc1 [Example 37, 4-({2-[(3R)-1-cyclopentylpyrrolidin-3-yl]-1-oxo-1,2,3,4-tetrahydroisoquinolin-6-yl}oxy)-N-methylbenzamide]
19 | ≤ 10 | CCNC(=O)c1ccc(-c2ccc3c(c2)CCN([C@@H]2CCN(C4CCC4)C2)C3=O)cc1 [Example 45, 4-{2-[(3R)-1-cyclobutylpyrrolidin-3-yl]-1-oxo-1,2,3,4-tetrahydroisoquinolin-6-yl}-N-ethylbenzamide]
20 | ≤ 10 | O=C(NC1CC1)c1ccc(Oc2ccc3c(c2)CCN(C2CCN(C4CCC4)CC2)C3=O)cc1 [Example 7, 4-{[2-(1-Cyclobutylpiperidin-4-yl)-1-oxo-1,2,3,4-tetrahydroisoquinolin-6-yl]oxy}-N-cyclopropylbenzamide]
21 | ≤ 10 | O=C(c1ccc(-c2ccc3c(c2)CCN(C2CCN(C4CCCC4)CC2)C3=O)cc1)N1CCCC1 [Example 66, 2-(1-cyclopentylpiperidin-4-yl)-6-[4-(pyrrolidin-1-ylcarbonyl)phenyl]-3,4-dihydroisoquinolin-1(2H)-one]
22 | ≤ 10 | O=C(c1ccc(-c2ccc3c(c2)CN([C@@H]2CCN(C4CCC4)C2)C3=O)cc1)N1CCCC1 [Example 92, (R)-2-(1-cyclobutylpyrrolidin-3-yl)-5-(4-(pyrrolidine-1-carbonyl)-phenyl)isoindolin-1-one hydrochloride]
23 | ≤ 10 | O=C(NC1CC1)c1ccc(-c2ccc3c(c2)CCN([C@@H]2CCN(C4CCC4)C2)C3=O)c(F)c1 [Example 81, 4-{2-[(3R)-1-cyclobutylpyrrolidin-3-yl]-1-oxo-1,2,3,4-tetrahydroisoquinolin-6-yl}-N-cyclopropyl-3-fluorobenzamide]
24 | ≤ 10 | CNC(=O)c1ccc(COc2ccc3c(c2)CCN(C2CCN(C4CCC4)CC2)C3=O)cc1 [Example 16, 4-({[2-(1-Cyclobutylpiperidin-4-yl)-1-oxo-1,2,3,4-tetrahydroisoquinolin-6-yl]oxy}methyl)-N-methylbenzamide]
25 | ≤ 10 | CCNC(=O)c1ccc(-c2ccc3c(c2)CCN([C@@H]2CCN(C4CCCC4)C2)C3=O)cc1 [Example 42, 4-{2-[(3R)-1-cyclopentylpyrrolidin-3-yl]-1-oxo-1,2,3,4-tetrahydroisoquinolin-6-yl}-N-ethylbenzamide]
26 | ≤ 10 | CCNC(=O)c1ccc(-c2ccc3c(c2)CCN([C@@H]2CCN(C4CCC4)C2)C3=O)c(F)c1 [Example 77, 4-{2-[(3R)-1-cyclobutylpyrrolidin-3-yl]-1-oxo-1,2,3,4-tetrahydroisoquinolin-6-yl}-N-ethyl-3-fluorobenzamide]
27 | ≤ 10 | CNC(=O)c1ccc(-c2ccc3c(c2)CCN([C@@H]2CCN(C4CCC4)C2)C3=O)c(F)c1 [Example 75, 4-{2-[(3R)-1-cyclobutylpyrrolidin-3-yl]-1-oxo-1,2,3,4-tetrahydroisoquinolin-6-yl}-3-fluoro-N-methylbenzamide]
28 | ≤ 10 | CCNC(=O)c1ccc(COc2ccc3c(c2)CCN(C2CCN(C4CCC4)CC2)C3=O)cc1 [Example 17, 4-({[2-(1-Cyclobutylpiperidin-4-yl)-1-oxo-1,2,3,4-tetrahydroisoquinolin-6-yl]oxy}methyl)-N-ethylbenzamide]
29 | ≤ 10 | CNC(=O)c1ccc(-c2ccc3c(c2)CCN([C@@H]2CCN(C(C)C)C2)C3=O)c(F)c1 [Example 85, 3-fluoro-4-{2-[(3R)-1-isopropylpyrrolidin-3-yl]-1-oxo-1,2,3,4-tetrahydroisoquinolin-6-yl}-N-methylbenzamide]

Source: US20090069370A1, “AZACYCLYLISOQUINOLINONE AND ISOINDOLINONE DERIVATIVES AS HISTAMINE-3 ANTAGONISTS” (Wyeth, priority 2007, published 2009)
